Assay results published in patent US20240166660A1, “KRAS G12C INHIBITORS” (BeiGene Switzerland GmbH, priority 2021, published 2024).

Target: KRAS (aa 1-169) G12C, C51S, C80L, C118S (Homo sapiens (Human), UniProt P01116, C118S/C51S/C80L/G12C)
Experiment: Biochemical functional assay: SOS1-mediated nucleotide exchange of GDP-loaded KRAS G12C, binding to GST-cRaf RBD, FRET readout
Conditions: 3 hrs pre-incubation with compound at 24° C., SOS1, GTPyS
Procedure: Biochemical Functional Assay
The KRAS (aa 1-169) G12C, C51S, C80L, C118S with a His-tag was expressed, purified and loaded with GDP in house. All protein and substrate solutions were prepared in assay buffer containing 25 mM HEPES pH7.5, 10 mM MgCl2, and 0.01% Triton X-100. Purified GDP-loaded KRAS (aa 1-169) G12C, C51S, C80L, C118S protein was pre-incubated with a serially diluted compound at 24° C. for 3 hrs. Purified SOS1 (aa 564-1049) protein, GTPyS (Sigma) and GST-cRaf RBD (aa 1-149) were then added to each well and incubated at 24° C. for additional 3 hrs. […] Following the incubation, Mab Anti-6HIS-T cryptate (Cisbio) and Mab Anti GST-XL665 (Cisbio) were added and further incubated at 24° C. for 3 hrs. The binding interaction between active GTPyS KRAS G12C and GST-cRaf RBD brings the Tb and XL665 into close proximity enabling an increased FRET signal (Ex337 nm, Em665 nm/620 nm). The inhibition percentage of nucleotide exchange reaction in presence of increasing concentrations of compounds was calculated based on the ratio of fluorescence at 665 nm to that at 620 nm detected on a BMG PHERAstar FSX instrument. The IC50 value of each compound was calculated from fitting the data to the four-parameter logistic model by Dotmatics.

[1] = inhibition of nucleotide exchange

Sequence of KRAS (aa 1-169) G12C, C51S, C80L, C118S (P01116 other isoform, or with tags, fused parts or gaps G12C/C51S/C80L/C118S): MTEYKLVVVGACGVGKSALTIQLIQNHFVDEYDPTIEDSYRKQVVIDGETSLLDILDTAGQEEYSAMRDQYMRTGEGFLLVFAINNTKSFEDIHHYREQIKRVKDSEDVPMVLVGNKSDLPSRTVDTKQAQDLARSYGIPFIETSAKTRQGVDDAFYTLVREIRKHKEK

| SMILES | IC50 (bound in uM) [µM] | IC50 [1] [µM] |
| --- | --- | --- |
| C=CC(=O)N1CCN(c2ncnc3cc(-c4ccc(O)c(Cl)c4)c4c(c23)OCCC4)C[C@@H]1CC#N [Compound A27, (S)-2-(1-acryloyl-4-(5-(3-chloro-4-hydroxyphenyl)-3,4-dihydro-2H-pyrano[2,3-f]quinazolin-10-yl)piperazin-2-yl)acetonitrile] | > 10 |  |
| C=CC(=O)N1CCN(c2ncnc3cc(-c4ccc(O)c(F)c4)c4c(c23)OCCC4)C[C@@H]1CC#N [Compound A28, (S)-2-(1-acryloyl-4-(5-(3-fluoro-4-hydroxyphenyl)-3,4-dihydro-2H-pyrano[2,3-f]quinazolin-10-yl)piperazin-2-yl)acetonitrile] | > 10 |  |
| C=CC(=O)N1CCN(c2ncnc3cc(-c4c(Cl)c(Cl)cc5[nH]ncc45)c4c(c23)OCCC4)C[C@@H]1CC#N [Compound A29, 2-((2S)-1-acryloyl-4-(5-(5,6-dichloro-1H-indazol-4-yl)-3,4-dihydro-2H-pyrano[2,3-f]quinazolin-10-yl)piperazin-2-yl)acetonitrile] |  | 0.0093 |
| C=C(F)C(=O)N1CCN(c2ncnc3cc(-c4c(C)cccc4F)c4c(c23)OCCC4)C[C@@H]1CC#N [Compound A30, 2-((2S)-4-(5-(2-fluoro-6-methylphenyl)-3,4-dihydro-2H-pyrano[2,3-f]quinazolin-10-yl)-1-(2-fluoroacryloyl)piperazin-2-yl)acetonitrile] |  | 1.96 |
| C=CC(=O)N1CCN(c2ncnc3cc(-c4cccc(C)c4F)c4c(c23)OCCC4)C[C@@H]1CC#N [Compound A31, (S)-2-(1-acryloyl-4-(5-(2-fluoro-3-methylphenyl)-3,4-dihydro-2H-pyrano[2,3-f]quinazolin-10-yl)piperazin-2-yl)acetonitrile] |  | 0.137 |
| C=CC(=O)N1CCN(c2ncnc3cc(-c4cccc5cccc(Cl)c45)c4c(c23)OCCC4)C[C@@H]1CC#N [Compound A32, (S)-2-(1-acryloyl-4-(5-(8-chloronaphthalen-1-yl)-3,4-dihydro-2H-pyrano[2,3-f]quinazolin-10-yl)piperazin-2-yl)acetonitrile] |  | 0.012 |
| C=CC(=O)N1CCN(c2ncnc3cc(-c4c(C)cccc4F)c4c(c23)OCCC4)C[C@@H]1CC#N [Compound A33, 2-((2S)-1-acryloyl-4-(5-(2-fluoro-6-methylphenyl)-3,4-dihydro-2H-pyrano[2,3-f]quinazolin-10-yl)piperazin-2-yl)acetonitrile] |  | 0.233 |
| C=CC(=O)N1CCN(c2ncnc3cc(-c4c(F)cccc4F)c4c(c23)OCCC4)C[C@@H]1CC#N [Compound A34, (S)-2-(1-acryloyl-4-(5-(2,6-difluorophenyl)-3,4-dihydro-2H-pyrano[2,3-f]quinazolin-10-yl)piperazin-2-yl)acetonitrile] |  | 2.11 |
| C=CC(=O)N1CCN(c2nc(OC[C@@H]3CCCN3C)nc3cc(-c4c(Cl)c(C)cc5[nH]ncc45)c4c(c23)OCCC4)C[C@@H]1CC#N [Compound B1, 2-((2S)-1-acryloyl-4-(5-(5-chloro-6-methyl-1H-indazol-4-yl)-8-(((S)-1-methylpyrrolidin-2-yl)methoxy)-3,4-dihydro-2H-pyrano[2,3-f]quinazolin-10-yl)piperazin-2-yl)acetonitrile] |  | 0.003 |
| C=CC(=O)N1CCN(c2nc(N3CC(N(C)C)C3)nc3cc(-c4c(F)cccc4F)c4c(c23)OCCC4)CC1 [Compound B2, 1-(4-(5-(2,6-difluorophenyl)-8-(3-(dimethylamino)azetidin-1-yl)-3,4-dihydro-2H-pyrano[2,3-f]quinazolin-10-yl)piperazin-1-yl)prop-2-en-1-one] |  | 2.24 |
| C=CC(=O)N1CCN(c2nc(O[C@H]3CN(C)C[C@@H]3OC)nc3cc(-c4c(Cl)c(C)cc5[nH]ncc45)c4c(c23)OCCC4)C[C@@H]1CC#N [Compound B3, 2-((2S)-1-acryloyl-4-(5-(5-chloro-6-methyl-1H-indazol-4-yl)-8-(((3S,4S)-4-methoxy-1-methylpyrrolidin-3-yl)oxy)-3,4-dihydro-2H-pyrano[2,3-f]quinazolin-10-yl)piperazin-2-yl)acetonitrile] |  | 0.0065 |
| C=CC(=O)N1CCN(c2nc(N3CC(N(C)C)C3)nc3cc(-c4c(Cl)c(C)cc5[nH]ncc45)c4c(c23)OCCC4)C[C@@H]1CC#N [Compound B4, 2-((2S)-1-acryloyl-4-(5-(5-chloro-6-methyl-1H-indazol-4-yl)-8-(3-(dimethylamino)azetidin-1-yl)-3,4-dihydro-2H-pyrano[2,3-f]quinazolin-10-yl)piperazin-2-yl)acetonitrile] |  | 0.0047 |
| C=CC(=O)N1CCN(c2nc(OCCN(C)C)nc3cc(-c4c(Cl)c(C)cc5[nH]ncc45)c4c(c23)OCCC4)C[C@@H]1CC#N [Compound B5, 2-((2S)-1-acryloyl-4-(5-(5-chloro-6-methyl-1H-indazol-4-yl)-8-(2-(dimethylamino)ethoxy)-3,4-dihydro-2H-pyrano[2,3-f]quinazolin-10-yl)piperazin-2-yl)acetonitrile] |  | 0.0079 |
| C=CC(=O)N1CCN(c2nc(OC[C@@H]3CCCN3C)nc3cc(-c4c(Cl)c(C)cc5[nH]ncc45)c4c(c23)OCCC4)CC1 [Compound B6, 1-(4-(5-(5-chloro-6-methyl-1H-indazol-4-yl)-8-(((S)-1-methylpyrrolidin-2-yl)methoxy)-3,4-dihydro-2H-pyrano[2,3-f]quinazolin-10-yl)piperazin-1-yl)prop-2-en-1-one] |  | 0.034 |
| C=CC(=O)N1CCN(c2nc(N3CC(N(C)C)C3)nc3cc(-c4c(O)cccc4F)c4c(c23)OCCC4)CC1 [Compound B7, 1-(4-(8-(3-(dimethylamino)azetidin-1-yl)-5-(2-fluoro-6-hydroxyphenyl)-3,4-dihydro-2H-pyrano[2,3-f]quinazolin-10-yl)piperazin-1-yl)prop-2-en-1-one] |  | 1.09 |
| C=C(F)C(=O)N1CCN(c2nc(N3CC(N(C)C)C3)nc3cc(-c4c(O)cccc4F)c4c(c23)OCCC4)C[C@@H]1CC#N [Compound B8, 2-((2S)-4-(8-(3-(dimethylamino)azetidin-1-yl)-5-(2-fluoro-6-hydroxyphenyl)-3,4-dihydro-2H-pyrano[2,3-f]quinazolin-10-yl)-1-(2-fluoroacryloyl)piperazin-2-yl)acetonitrile] |  | 0.255 |
| C=C(F)C(=O)N1CCN(c2nc(N3CC(N(C)C)C3)nc3cc(-c4cccc(F)c4F)c4c(c23)OCCC4)C[C@@H]1CC#N [Compound B9, (S)-2-(4-(5-(2,3-difluorophenyl)-8-(3-(dimethylamino)azetidin-1-yl)-3,4-dihydro-2H-pyrano[2,3-f]quinazolin-10-yl)-1-(2-fluoroacryloyl)piperazin-2-yl)acetonitrile] |  | 0.456 |
| C=CC(=O)N1CCN(c2nc(N3CC(N(C)C)C3)nc3cc(-c4cccc5ccccc45)c4c(c23)OCCC4)CC1 [Compound B10, 1-(4-(8-(3-(dimethylamino)azetidin-1-yl)-5-(naphthalen-1-yl)-3,4-dihydro-2H-pyrano[2,3-f]quinazolin-10-yl)piperazin-1-yl)prop-2-en-1-one] |  | 0.235 |
| C=C(F)C(=O)N1CCN(c2nc(OC[C@@H]3CCCN3C)nc3cc(-c4c(Cl)c(C)cc5[nH]ncc45)c4c(c23)OCCC4)C[C@@H]1CC#N [Compound B11, 2-((2S)-4-(5-(5-chloro-6-methyl-1H-indazol-4-yl)-8-(((S)-1-methylpyrrolidin-2-yl)methoxy)-3,4-dihydro-2H-pyrano[2,3-f]quinazolin-10-yl)-1-(2-fluoroacryloyl)piperazin-2-yl)acetonitrile] |  | 0.00781 |
| C=CC(=O)N1CCN(c2nc(OC[C@@H]3C[C@@H](F)CN3C)nc3cc(-c4cccc(F)c4F)c4c(c23)OCCC4)CC1 [Compound B14, 1-(4-(5-(2,3-difluorophenyl)-8-(((2S,4R)-4-fluoro-1-methylpyrrolidin-2-yl)methoxy)-3,4-dihydro-2H-pyrano[2,3-f]quinazolin-10-yl)piperazin-1-yl)prop-2-en-1-one] | > 10 |  |
| C=CC(=O)N1CCN(c2nc(OC[C@@H]3C[C@@H](F)CN3C)nc3cc(-c4c(Cl)c(C)cc5[nH]ncc45)c4c(c23)OCCC4)CC1 [Compound B15, 1-(4-(5-(5-chloro-6-methyl-1H-indazol-4-yl)-8-(((2S,4R)-4-fluoro-1-methylpyrrolidin-2-yl)methoxy)-3,4-dihydro-2H-pyrano[2,3-f]quinazolin-10-yl)piperazin-1-yl)prop-2-en-1-one] |  | 0.107 |
| C=CC(=O)N1CCN(c2nc(N3CC(N(C)C)C3)nc3cc(-c4ccccc4F)c4c(c23)OCCC4)CC1 [Compound B16, 1-(4-(8-(3-(dimethylamino)azetidin-1-yl)-5-(2-fluorophenyl)-3,4-dihydro-2H-pyrano[2,3-f]quinazolin-10-yl)piperazin-1-yl)prop-2-en-1-one] | > 10 |  |
| C=CC(=O)N1CCN(c2nc(N3CC(N(C)C)C3)nc3cc(-c4cccc(Cl)c4)c4c(c23)OCCC4)CC1 [Compound B17, 1-(4-(5-(3-chlorophenyl)-8-(3-(dimethylamino)azetidin-1-yl)-3,4-dihydro-2H-pyrano[2,3-f]quinazolin-10-yl)piperazin-1-yl)prop-2-en-1-one] | > 10 |  |
